Data as given in the supplement of paper PMC10307832.

Columns and labels:
Test in all cases: relative viability (nuclei count vs DMSO), 5 days (fraction); higher = more cells survive
Dactolisib + Crizotinib = compound: Cn1c(=O)n(-c2ccc(C(C)(C)C#N)cc2)c2c3cc(-c4cnc5ccccc5c4)ccc3ncc21 [Dactolisib] + C[C@@H](Oc1cc(-c2cnn(C3CCNCC3)c2)cnc1N)c1c(Cl)ccc(F)c1Cl [Crizotinib] (partner 1 µM)
Method in brief: (§1)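 Medians of duplicate plates are given as relative viability. That measure is the nuclei count in treated wells divided by the count in vehicle wells. Counts were taken on 4× images of lung cancer cell lines in 1536-well plates, 5 days after pin-tool dosing the day after seeding with one drug alone or a fixed anchor-drug dose plus five library-drug doses (not always all listed) in √10 steps.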

Dactolisib + Pemetrexed = compound: Cn1c(=O)n(-c2ccc(C(C)(C)C#N)cc2)c2c3cc(-c4cnc5ccccc5c4)ccc3ncc21 [Dactolisib] + Nc1nc2[nH]cc(CCc3ccc(C(=O)N[C@@H](CCC(=O)O)C(=O)O)cc3)c2c(=O)[nH]1 [Pemetrexed] (partner 0.2 µM)
Method in brief: as §1

AZ505 + Tozasertib = compound: C1CCC(CC1)N(CCNCCC2=C3C(=C(C=C2)O)NC(=O)CO3)C(=O)CCNCCC4=CC(=C(C=C4)Cl)Cl [AZ505] + Cc1cc(Nc2cc(N3CCN(C)CC3)nc(Sc3ccc(NC(=O)C4CC4)cc3)n2)n[nH]1 [Tozasertib] (partner 0.1 µM)
Method in brief: as §1

Dactolisib + Navitoclax = compound: Cn1c(=O)n(-c2ccc(C(C)(C)C#N)cc2)c2c3cc(-c4cnc5ccccc5c4)ccc3ncc21 [Dactolisib] + CC1(C)CCC(c2ccc(Cl)cc2)=C(CN2CCN(c3ccc(C(=O)NS(=O)(=O)c4ccc(N[C@H](CCN5CCOCC5)CSc5ccccc5)c(S(=O)(=O)C(F)(F)F)c4)cc3)CC2)C1 [Navitoclax] (partner 0.5 µM)
Method in brief: as §1

Cell Line | relative viability (Dactolisib + Crizotinib; first compound 0.002 µM) | relative viability (Dactolisib + Crizotinib; first compound 0.006325 µM) | relative viability (Dactolisib + Crizotinib; first compound 0.02 µM) | relative viability (Dactolisib + Crizotinib; first compound 0.06325 µM) | relative viability (Dactolisib + Crizotinib; first compound 0.2 µM) | relative viability (Dactolisib + Pemetrexed; first compound 0.002 µM) | relative viability (Dactolisib + Pemetrexed; first compound 0.006325 µM) | relative viability (Dactolisib + Pemetrexed; first compound 0.02 µM) | relative viability (Dactolisib + Pemetrexed; first compound 0.06325 µM) | relative viability (Dactolisib + Pemetrexed; first compound 0.2 µM) | relative viability (AZ505 + Tozasertib; first compound 0.253 µM) | relative viability (AZ505 + Tozasertib; first compound 0.8 µM) | relative viability (AZ505 + Tozasertib; first compound 2.53 µM) | relative viability (AZ505 + Tozasertib; first compound 8 µM) | relative viability (Dactolisib + Navitoclax; first compound 0.002 µM) | relative viability (Dactolisib + Navitoclax; first compound 0.006325 µM) | relative viability (Dactolisib + Navitoclax; first compound 0.02 µM) | relative viability (Dactolisib + Navitoclax; first compound 0.06325 µM) | relative viability (Dactolisib + Navitoclax; first compound 0.2 µM) | relative viability (AZ505 + Tozasertib; first compound 0.08 µM)
EPLC-272H | 0.949 | 0.564 | 0.647 | 0.494 | 0.483 | 0.214 | 0.333 | 0.294 | 0.36 | 0.314 | 0.392 | 0.282 | 0.316 | 0.25 | 1.31 | 1.01 | 0.937 | 0.592 | 0.365 | –
NCI-H1915 | 0.889 | 0.903 | 0.916 | 0.713 | 0.529 | 0.355 | 0.508 | 0.455 | 0.425 | 0.42 | 0.447 | 0.432 | 0.416 | 0.399 | 0.783 | 0.759 | 0.773 | 0.781 | 0.484 | 0.422
NCI-H596 | 0.974 | 0.874 | 0.742 | 0.595 | 0.395 | 0.457 | 0.428 | 0.513 | 0.41 | 0.401 | 0.894 | 0.708 | 0.821 | 0.726 | 0.894 | 0.852 | 0.701 | 0.416 | 0.171 | 0.845
NCI-H322M | 0.827 | 1.02 | 0.863 | 0.684 | 0.641 | 0.664 | 0.641 | 0.643 | 0.523 | 0.474 | 0.478 | 0.467 | 0.484 | 0.465 | 1.22 | 1.17 | 1.16 | 0.733 | 0.677 | 0.451
NCI-H2228 | 0.601 | 0.283 | 0.297 | 0.252 | 0.175 | 0.35 | 0.352 | 0.324 | 0.252 | 0.144 | 0.279 | 0.164 | 0.206 | 0.236 | 0.875 | 0.699 | 0.551 | 0.241 | 0.215 | 0.23
NCI-H647 | 1.21 | 0.848 | 0.5 | 0.133 | 0.124 | 0.144 | 0.172 | 0.194 | 0.154 | 0.101 | 0.425 | 0.277 | 0.372 | 0.363 | 1.1 | 0.964 | 0.685 | 0.295 | 0.348 | 0.46
SK-MES-1 | 1.14 | 0.989 | 0.986 | 0.632 | 0.567 | 0.993 | 0.837 | 0.847 | 0.417 | 0.367 | 0.863 | 0.898 | 0.785 | 0.884 | 1.34 | 1.17 | 1.1 | 0.574 | 0.55 | 0.853
NCI-H2170 | 1.2 | 1.17 | 0.832 | 0.677 | 0.331 | 0.262 | 0.258 | 0.281 | 0.261 | 0.263 | 0.715 | 0.641 | 0.741 | 0.766 | 0.58 | 0.512 | 0.473 | 0.217 | 0.198 | 0.845
